From patent publication US6355799B1, “Substituted benzene compounds, process for their preparation, and herbicidal and defoliant compositions containing them” (ISK Americas Incorporated, priority 1997, dated 2002)

Experiments:
Assay type in all cases: in vivo
[1] = tested on: barnyardgrass (Echinochloa crus-galli, ECHCG); assay: Post-emerge test, greenhouse herbicide activity screening; conditions: post-emerge, phytotoxicity rating 0-100 at 14 days after application
Summary of the method: (§1)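 Rating: 0–100 visual injury, 14 DAA. Application: acetone, 187 l/ha, 15–1000 g ai/ha, flat-fan track sprayer with nozzle 40–45 cm above soil or canopy. Post-emerge runs used 0.25% v/v surfactant on 2–3 leaf plants.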

[2] = tested on: johnsongrass (Sorghum halepense, SORHA); assay: as above; conditions: post-emerge, phytotoxicity rating 0-100 at 14 days after application
Summary of the method: as §1

[3] = tested on: large crabgrass (Digitaria sanguinalis, DIGSA); assay: as above; conditions: post-emerge, phytotoxicity rating 0-100 at 14 days after application
Summary of the method: as §1

[4] = tested on: sicklepod (Cassia obtusifolia, CASOB); assay: as above; conditions: post-emerge, phytotoxicity rating 0-100 at 14 days after application
Summary of the method: as §1

[5] = tested on: velvetleaf (Abutilon theophrasti, ABUTH); assay: as above; conditions: post-emerge, phytotoxicity rating 0-100 at 14 days after application
Summary of the method: as §1

[6] = tested on: lambsquarters (Chenopodium album, CHEAL); assay: as above; conditions: post-emerge, phytotoxicity rating 0-100 at 14 days after application
Summary of the method: as §1

[7] = tested on: ivyleaf morningglory (Ipomoea hederacea, IPOHE); assay: as above; conditions: post-emerge, phytotoxicity rating 0-100 at 14 days after application
Summary of the method: as §1

[8] = tested on: green foxtail (Setaria viridis, SETVI); assay: as above; conditions: post-emerge, phytotoxicity rating 0-100 at 14 days after application
Summary of the method: as §1

[9] = tested on: redroot pigweed (Amaranthus retroflexus, AMARE); assay: as above; conditions: post-emerge, phytotoxicity rating 0-100 at 14 days after application
Summary of the method: as §1

[10] = tested on: barnyardgrass (Echinochloa crus-galli, ECHCG); assay: Pre-emerge test, greenhouse herbicide activity screening; conditions: pre-emerge, phytotoxicity rating 0-100 at 14 days after application
Summary of the method: (§2)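 Compounds in acetone were track-sprayed at 187 l/ha, 15–1000 g ai/ha, onto sandy loam pots. Pre-emerge seeds were sown one day before spraying, with surface watering afterwards. Post-emerge plants were at the 2–3 leaf stage and sprayed with 0.25% v/v non-ionic surfactant. Injury was rated 0–100 at 14 days.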

[11] = tested on: johnsongrass (Sorghum halepense, SORHA); assay: as above; conditions: pre-emerge, phytotoxicity rating 0-100 at 14 days after application
Summary of the method: as §2

[12] = tested on: large crabgrass (Digitaria sanguinalis, DIGSA); assay: as above; conditions: pre-emerge, phytotoxicity rating 0-100 at 14 days after application
Summary of the method: as §2

[13] = tested on: sicklepod (Cassia obtusifolia, CASOB); assay: as above; conditions: pre-emerge, phytotoxicity rating 0-100 at 14 days after application
Summary of the method: as §2

[14] = tested on: velvetleaf (Abutilon theophrasti, ABUTH); assay: as above; conditions: pre-emerge, phytotoxicity rating 0-100 at 14 days after application
Summary of the method: as §2

[15] = tested on: lambsquarters (Chenopodium album, CHEAL); assay: as above; conditions: pre-emerge, phytotoxicity rating 0-100 at 14 days after application
Summary of the method: as §2

[16] = tested on: ivyleaf morningglory (Ipomoea hederacea, IPOHE); assay: as above; conditions: pre-emerge, phytotoxicity rating 0-100 at 14 days after application
Summary of the method: as §2

[17] = tested on: green foxtail (Setaria viridis, SETVI); assay: as above; conditions: pre-emerge, phytotoxicity rating 0-100 at 14 days after application
Summary of the method: as §2

[18] = tested on: field corn (Zea mays L., var. Dekalb 535, CORN); assay: Pre-emerge test, crop safety; conditions: crop damage, pre-emerge, phytotoxicity rating 0-100 at 14 days after application
Summary of the method: (§3)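 Herbicidal damage is scored 0 (none) to 100 (complete plant death) two weeks after a simulated field spray. Rates span 15–1000 g ai/ha, delivered in acetone at 187 l/ha. For post-emergence treatments, plants have 2–3 leaves and the spray carries 0.25% v/v non-ionic surfactant.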

[19] = tested on: upland rice (Oryza sp., var. Tebonnet, RICE); assay: Pre-emerge test, crop safety; conditions: crop damage, pre-emerge, phytotoxicity rating 0-100 at 14 days after application
Summary of the method: as §3

[20] = tested on: redroot pigweed (Amaranthus retroflexus, AMARE); assay: Pre-emerge test, greenhouse herbicide activity screening; conditions: pre-emerge, phytotoxicity rating 0-100 at 14 days after application
Summary of the method: as §1

[21] = tested on: field corn (Zea mays L., var. Dekalb 535, CORN); assay: Post-emerge test, crop safety; conditions: post-emerge, crop damage rating 0-100 at 14 days after application
Summary of the method: as §2

[22] = tested on: upland rice (Oryza sp., var. Tebonnet, RICE); assay: Post-emerge test, crop safety; conditions: post-emerge, crop damage rating 0-100 at 14 days after application
Summary of the method: as §2

With `C#CCOc1c(Cl)cc(F)c(N2C(=O)C3=C(CCCC3)C2=O)c1N` [Compound 8-3, N-(2-amino-4-chloro-6-fluoro-3-propargyloxyphenyl)tetrahydrophthalimide] the “Post-emerge Herbicidal Activity ECHCG” value ([1]; 63 g ai/ha) was 0, the “Post-emerge Herbicidal Activity ECHCG” value ([1]; 250 g ai/ha) was 0 and the “Post-emerge Herbicidal Activity SORHA” value ([2]; 63 g ai/ha) was 0. For the same compound, the “Post-emerge Herbicidal Activity SORHA” value ([2]; 250 g ai/ha) was 20, the “Post-emerge Herbicidal Activity DIGSA” value ([3]; 63 g ai/ha) was 0 and the “Post-emerge Herbicidal Activity DIGSA” value ([3]; 250 g ai/ha) was 0. For the same compound, the “Post-emerge Herbicidal Activity CASOB” value ([4]; 63 g ai/ha) was 0, the “Post-emerge Herbicidal Activity CASOB” value ([4]; 250 g ai/ha) was 50 and the “Post-emerge Herbicidal Activity ABUTH” value ([5]; 63 g ai/ha) was 90. For the same compound, the “Post-emerge Herbicidal Activity ABUTH” value ([5]; 250 g ai/ha) was 100, the “Post-emerge Herbicidal Activity CHEAL” value ([6]; 63 g ai/ha) was 70 and the “Post-emerge Herbicidal Activity CHEAL” value ([6]; 250 g ai/ha) was 90. For the same compound, the “Post-emerge Herbicidal Activity IPOHE” value ([7]; 63 g ai/ha) was 40, the “Post-emerge Herbicidal Activity IPOHE” value ([7]; 250 g ai/ha) was 60 and the “Post-emerge Herbicidal Activity SETVI” value ([8]; 63 g ai/ha) was 0. The “Post-emerge Herbicidal Activity SETVI” value ([8]; 250 g ai/ha) was 70, the “Post-emerge Herbicidal Activity AMARE” value ([9]; 63 g ai/ha) was 90 and the “Post-emerge Herbicidal Activity AMARE” value ([9]; 250 g ai/ha) was 100. The “Pre-emerge Herbicidal Activity ECHCG” value ([10]; rate 63 g ai/ha) was 0, the “Pre-emerge Herbicidal Activity ECHCG” value ([10]; rate 250 g ai/ha) was 10 and the “Pre-emerge Herbicidal Activity SORHA” value ([11]; rate 63 g ai/ha) was 20. For the same compound, the “Pre-emerge Herbicidal Activity SORHA” value ([11]; rate 250 g ai/ha) was 30, the “Pre-emerge Herbicidal Activity DIGSA” value ([12]; rate 63 g ai/ha) was 30 and the “Pre-emerge Herbicidal Activity DIGSA” value ([12]; rate 250 g ai/ha) was 60. The “Pre-emerge Herbicidal Activity CASOB” value ([13]; rate 63 g ai/ha) was 30, the “Pre-emerge Herbicidal Activity CASOB” value ([13]; rate 250 g ai/ha) was 50 and the “Pre-emerge Herbicidal Activity ABUTH” value ([14]; rate 63 g ai/ha) was 98. The “Pre-emerge Herbicidal Activity ABUTH” value ([14]; rate 250 g ai/ha) was 100, the “Pre-emerge Herbicidal Activity CHEAL” value ([15]; rate 63 g ai/ha) was 99 and the “Pre-emerge Herbicidal Activity CHEAL” value ([15]; rate 250 g ai/ha) was 100. For the same compound, the “Pre-emerge Herbicidal Activity IPOHE” value ([16]; rate 63 g ai/ha) was 30, the “Pre-emerge Herbicidal Activity IPOHE” value ([16]; rate 250 g ai/ha) was 10 and the “Pre-emerge Herbicidal Activity SETVI” value ([17]; rate 63 g ai/ha) was 95. For the same compound, the “Pre-emerge Herbicidal Activity SETVI” value ([17]; rate 250 g ai/ha) was 98, the “Pre-emerge Herbicidal Activity CORN” value ([18]; rate 63 g ai/ha) was 10 and the “Pre-emerge Herbicidal Activity CORN” value ([18]; rate 250 g ai/ha) was 0. For the same compound, the “Pre-emerge Herbicidal Activity RICE” value ([19]; rate 63 g ai/ha) was 0, the “Pre-emerge Herbicidal Activity RICE” value ([19]; rate 250 g ai/ha) was 0 and the “Pre-emerge Herbicidal Activity AMARE” value ([20]; rate 63 g ai/ha) was 99. The “Pre-emerge Herbicidal Activity AMARE” value ([20]; rate 250 g ai/ha) was 100, the “Post-emerge Herbicidal Activity CORN” value ([21]; 63 g ai/ha) was 0 and the “Post-emerge Herbicidal Activity CORN” value ([21]; 250 g ai/ha) was 0. The “Post-emerge Herbicidal Activity RICE” value ([22]; 63 g ai/ha) was 20 and the “Post-emerge Herbicidal Activity RICE” value ([22]; 250 g ai/ha) was 80.
